Strand notation (5' to 3'): a small letter for the sugar, then the base; units joined by * are phosphorothioate-linked, units joined directly phosphodiester-linked; [ ] holds rarer units or linkages, { } end groups; capitals alone tell only the bases. k = constrained ethyl (cEt); [5mC] = 5-methylcytosine; d = 2'-deoxy (DNA)
system: human SMAD7 mRNA; test: Antisense inhibition of human SMAD7 mRNA expression in Hep3B cells by 3-10-3 cEt gapmers, 10,000 nM, electroporation (Example 2); assay type: cell-based; settings: Hep3B cells, 10,000 nM antisense oligonucleotide, electroporation, approximately 24 hours, RT-PCR primer probe set RTS5062, relative to untreated control cells
In short: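 Percent inhibition of SMAD7 mRNA, relative to untreated cells, after ~24 h exposure of electroporated Hep3B cells to 10,000 nM cEt gapmer; levels by qRT-PCR, corrected for total RNA.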

Substance	% Inhibition [%]
798906 (kG*k[5mC]*kT*dA*d[5mC]*d[5mC]*dG*dG*d[5mC]*dT*dG*dT*dT*kG*kA*kA; antisense) [compound 798906]	0
798907 (kG*k[5mC]*kG*dG*d[5mC]*dT*dA*d[5mC]*d[5mC]*dG*dG*d[5mC]*dT*kG*kT*kT; antisense) [compound 798907]	0
798908 (k[5mC]*kG*k[5mC]*dG*dG*d[5mC]*dT*dA*d[5mC]*d[5mC]*dG*dG*d[5mC]*kT*kG*kT; antisense) [compound 798908]	0
798909 (kA*k[5mC]*kG*d[5mC]*dG*dG*d[5mC]*dT*dA*d[5mC]*d[5mC]*dG*dG*k[5mC]*kT*kG; antisense) [compound 798909]	42
798910 (k[5mC]*kA*k[5mC]*dG*d[5mC]*dG*dG*d[5mC]*dT*dA*d[5mC]*d[5mC]*dG*kG*k[5mC]*kT; antisense) [compound 798910]	42
798911 (kG*k[5mC]*kA*d[5mC]*dG*d[5mC]*dG*dG*d[5mC]*dT*dA*d[5mC]*d[5mC]*kG*kG*k[5mC]; antisense) [compound 798911]	0
798912 (kT*k[5mC]*k[5mC]*dG*d[5mC]*dA*d[5mC]*dG*d[5mC]*dG*dG*d[5mC]*dT*kA*k[5mC]*k[5mC]; antisense) [compound 798912]	22
798913 (k[5mC]*k[5mC]*k[5mC]*dT*d[5mC]*d[5mC]*dG*d[5mC]*dA*d[5mC]*dG*d[5mC]*dG*kG*k[5mC]*kT; antisense) [compound 798913]	21
798914 (kG*kT*k[5mC]*d[5mC]*d[5mC]*d[5mC]*dT*d[5mC]*d[5mC]*dG*d[5mC]*dA*d[5mC]*kG*k[5mC]*kG; antisense) [compound 798914]	56
798925 (kA*kG*kT*dA*dG*dT*dT*dT*dG*dA*dA*dG*dT*kG*kT*kG; antisense) [compound 798925]	0
798926 (antisense k[5mC]*kA*kA*dA*dG*dT*dA*dG*dT*dT*dT*dG*dA*kA*kG*kT) [compound 798926]	17
798927 (antisense k[5mC]*kA*kG*d[5mC]*dA*dA*dA*dG*dT*dA*dG*dT*dT*kT*kG*kA) [compound 798927]	0
798928 (antisense kT*kA*kG*d[5mC]*dA*dG*d[5mC]*dA*dA*dA*dG*dT*dA*kG*kT*kT) [compound 798928]	6
798929 (antisense kT*kA*kT*dT*dA*dG*d[5mC]*dA*dG*d[5mC]*dA*dA*dA*kG*kT*kA) [compound 798929]	41
798930 (antisense kG*kA*kA*dA*dA*dT*dA*dT*dT*dA*dG*d[5mC]*dA*kG*k[5mC]*kA) [compound 798930]	62

same assay, conditions: Hep3B cells, electroporation with 10,000 nM antisense oligonucleotide, approximately 24 hours, SMAD7 mRNA by RT-PCR (RTS5062), relative to untreated control cells

Substance	% Inhibition [%]
798915 (kT*k[5mC]*kT*dG*dT*d[5mC]*d[5mC]*d[5mC]*d[5mC]*dT*d[5mC]*d[5mC]*dG*k[5mC]*kA*k[5mC]; antisense) [compound 798915]	7
798916 (k[5mC]*kG*k[5mC]*dT*d[5mC]*dT*dG*dT*d[5mC]*d[5mC]*d[5mC]*d[5mC]*dT*k[5mC]*k[5mC]*kG; antisense) [compound 798916]	13
798917 (kG*k[5mC]*kT*d[5mC]*dA*d[5mC]*dG*d[5mC]*dT*d[5mC]*dT*dG*dT*k[5mC]*k[5mC]*k[5mC]; antisense) [compound 798917]	0
798918 (kT*k[5mC]*kA*dG*d[5mC]*dT*d[5mC]*dA*d[5mC]*dG*d[5mC]*dT*d[5mC]*kT*kG*kT; antisense) [compound 798918]	44
798919 (kT*kG*k[5mC]*dT*d[5mC]*dA*dG*d[5mC]*dT*d[5mC]*dA*d[5mC]*dG*k[5mC]*kT*k[5mC]; antisense) [compound 798919]	45
798920 (kG*k[5mC]*k[5mC]*dT*dG*d[5mC]*dT*d[5mC]*dA*dG*d[5mC]*dT*d[5mC]*kA*k[5mC]*kG; antisense) [compound 798920]	58
798921 (kG*kG*k[5mC]*d[5mC]*dT*dG*d[5mC]*dT*d[5mC]*dA*dG*d[5mC]*dT*k[5mC]*kA*k[5mC]; antisense) [compound 798921]	42
798922 (kA*kA*kG*dT*dG*dT*dG*dG*d[5mC]*d[5mC]*dT*dG*d[5mC]*kT*k[5mC]*kA; antisense) [compound 798922]	59
798923 (kT*kT*kG*dA*dA*dG*dT*dG*dT*dG*dG*d[5mC]*d[5mC]*kT*kG*k[5mC]; antisense) [compound 798923]	54

same assay, conditions: Hep3B cells, electroporation with 10,000 nM antisense oligonucleotide, approximately 24 hours, primer probe set RTS5062, relative to untreated control cells

Substance	% Inhibition [%]	% inhibition of SMAD7 mRNA expression [%]
798924 (kA*kG*kT*dT*dT*dG*dA*dA*dG*dT*dG*dT*dG*kG*k[5mC]*k[5mC]; antisense) [compound 798924]	43	
798932 (antisense k[5mC]*kT*k[5mC]*dA*dG*dG*dA*dG*dG*dA*dA*dA*dA*kT*kA*kT) [compound 798932]		0
798933 (antisense kG*k[5mC]*kA*d[5mC]*dT*d[5mC]*dA*dG*dG*dA*dG*dG*dA*kA*kA*kA) [compound 798933]		52
798934 (antisense kG*k[5mC]*kA*dA*dG*d[5mC]*dA*d[5mC]*dT*d[5mC]*dA*dG*dG*kA*kG*kG) [compound 798934]		40
798935 (antisense kA*kA*kA*dG*d[5mC]*dA*dA*dG*d[5mC]*dA*d[5mC]*dT*d[5mC]*kA*kG*kG) [compound 798935]	48	
798936 (antisense kG*k[5mC]*kA*dT*dG*dA*dA*dA*dA*dG*d[5mC]*dA*dA*kG*k[5mC]*kA) [compound 798936]	14	
798937 (antisense kG*kT*kT*dT*dG*d[5mC]*dA*dT*dG*dA*dA*dA*dA*kG*k[5mC]*kA) [compound 798937]	35	
798938 (antisense kA*k[5mC]*k[5mC]*dA*dA*dA*dG*dA*dG*dT*dT*dT*dG*k[5mC]*kA*kT) [compound 798938]	15	
798939 (antisense kA*k[5mC]*kG*dA*d[5mC]*d[5mC]*dA*dA*dA*dG*dA*dG*dT*kT*kT*kG) [compound 798939]	46	
798940 (antisense kA*kA*kA*dA*d[5mC]*dG*dA*d[5mC]*d[5mC]*dA*dA*dA*dG*kA*kG*kT) [compound 798940]	29	
798941 (antisense kA*kA*kA*dA*dA*dA*dA*d[5mC]*dG*dA*d[5mC]*d[5mC]*dA*kA*kA*kG) [compound 798941]	40	
798942 (antisense k[5mC]*kG*kA*dG*dA*dA*dG*dA*dA*dG*dA*dA*dA*kA*k[5mC]*k[5mC]) [compound 798942]	35	
798943 (antisense k[5mC]*kG*kA*dG*dG*dA*d[5mC]*dG*dA*dG*dA*dA*dG*kA*kA*kG) [compound 798943]		13
